Reference: paper PMC5382548 (Scientific Reports, 2015)

How the values were obtained:
[1] = system: T-loop, a 26-mer hairpin double-stranded DNA; assay: FRET melting assay, T-loop hairpin ds-DNA; format: binding; conditions: ds-DNA 0.2 μM, ligand 1 μM, K-cacodylate buffer pH 7.4, 60 mM K+
Procedure: (§1) Fluorescence resonance energy transfer (FRET) studies with DNA sequences labelled at the 5′ and 3′ ends, were conducted to evaluate the G4 DNA stabilizing properties of IQcs (at 0.1 to 5 μM ligand concentrations). The G4-forming sequence KRAS21R[11], together with T-loop, a 26-mer hairpin double-stranded DNA (ds-DNA) sequence were used in the first screening assay. Reproducible IQc dose-dependent melting curves (Sup. Inf.; Figure S3) and stabilization temperature (ΔTm) values were obtained (Figure 2 and Table S5).
(§2) Figure 2 FRET stabilization temperatures (ΔTm) of KRAS21R G4 and hairpin ds-DNA (T-loop) at 0.2 μM, in K-cacodylate buffer (pH = 7.4, 60 mM K^+), stabilized by IQc derivatives and TMPyP4 at 1 μM. ^a) SD ≤ 0.2°C. TEXT PRINTED IN THE PICTURE: TMPyP4: ΔTm / °C ^a) (T-Loop): 16.0; ΔTm / °C ^a) (KRAS21R): 25.1 | 3e: ΔTm / °C ^a) (T-Loop): 6.5; ΔTm / °C ^a) (KRAS21R): 22.0 | 3d: ΔTm / °C ^a) (T-Loop): 5.6; ΔTm / °C ^a) (KRAS21R): 19.9 | 2d: ΔTm / °C ^a) (T-Loop): 6.1; ΔTm / °C ^a) (KRAS21R): 15.1 | 2a: ΔTm / °C ^a) (T-Loop): 1.5; ΔTm / °C ^a) (KRAS21R): 4.4 […]
(§3) Oligonucleotide sequences were purchased from Eurofins MWG Synthesis GmbH, Germany or STAB VIDA Genomics Lab, Caparica, Lisbon, Portugal. The labelled oligonucleotides used in the FRET assays had attached the donor fluorophore FAM (6-carboxyfluorescein) and the acceptor fluorophore TAMRA (6-carboxytetramethylrhodamine): KRAS21R: 5′-FAM-[…]-TAMRA-3′; KRAS32R: 5′-FAM-[…]-TAMRA-3′; UTR-1: 5′-FAM-GCGGCGGCGGAGG-TAMRA-3′; UTR-2: 5′-FAM-[…]-TAMRA-3; T-Loop:5′-FAM-[…]-TAMRA-3′; F21T: 5′-FAM-[…]-TAMRA-3′. Non-labelled oligonucleotides were used in FRET competition assays and in the spectroscopic studies: ds26: - d(5′-CAATCGGATCGAATT CGATCCGATTG-3′); KRAS21R: 5′-[…]-3′; HT21: 5′-[…]-3′. Each oligonucleotide was initially diluted to a storage solution at 100 μM in nuclease-free water (not DEPC-treated), purchased from Ambion Applied Biosystems UK.
(§4) The ability of indolo[3,2-c]quinolines to stabilize DNA sequences was investigated using a Fluorescence Resonance Energy Transfer (FRET) assay as reported elsewhere.
(§5) Figure S3 (cont.)| Concentration-dependent (0.1, 0.5, 1, 2, 3, 4 and 5 µM) FRET melting profiles of G4 structures and T-loop DNA with indolo[3,2-c]quinoline derivatives 1a, 2a-g and 3d-j in K-cacodylate buffer (pH 7.4, 60 mM K+). […]
(§6) Table S5 | FRET stabilization temperatures (ΔTm) of G4s sequences and ds-DNA (0.2 µM) stabilized by […]

[2] = system: KRAS21R G4; assay: FRET melting assay, KRAS21R G4; format: binding, human; conditions: G4 0.2 μM, ligand 1 μM, K-cacodylate buffer pH 7.4, 60 mM K+
Procedure: as §1, §2, §3, §4, §5, §6

[3] = system: SW620 metastatic colon cancer cells; assay: Guava ViaCount assay, SW620; format: cell-based, human; conditions: IC65 concentration, 72 h
Text: The ability of IQcs to induce cell death in colon cancer cell lines with different genotypes (HCT116 and SW620) and in the non-malignant cell line HEK293T was studied by a Guava Via Count assay and compared with the behaviour of 5-FU and TMPyP4 at equitoxic concentrations (IC50 and IC65). Results in Figure 7 show dose-dependent induction of cell death, mainly by apoptosis, by all tested compounds in the HCT116 colon cancer cell line. […] In SW620 metastatic colon cancer cells, cell death induction was highly dependent on the number and position of side chains in IQc compounds. […]
Figure 7 Evaluation of the effect of IQc on cell viability using the ViaCount assay. […] Results are expressed as the mean percentage (%) of viable (white), mid-apoptotic (grey) and dead (black) cells ± SEM, of at least three different experiments, for (a) IC50, and for (b) IC65 compound concentrations. a, p < 0.05; b, p < 0.01 from DMSO (vehicle control); c, p < 0.05; and d, p < 0.01 from 5-FU. […]
Taqman Real-time PCR reactions were performed using 1.5 µg of total RNA, using High Capacity RNA to cDNA kit, according to the manufacturer`s instruction. […] The comparative threshold cycle method was used to calculate the amplification factor, where the threshold cycle (Ct) is defined as the cycle number at which the fluorescence passes the fixed threshold intensity level. […]

[4] = system: colon cancer cell lines with mutated KRAS; assay: Anti-proliferative activity, colon cancer cell lines with mutated KRAS; format: cell-based; conditions: Homo sapiens; range over HCT116 and SW620
Text: These differences may be due to differing effects on cellular proliferation mechanisms, on cellular uptake and/or intracellular distribution. Assuming a passive diffusion membrane transport for IQcs, compound 2d is expected to accumulate more inside cells due to its predicted higher lipophilicity than compounds with an additional protonated basic group at physiologic pH (3d and 3e). Similarly, the tetra-cationic porphyrin TMPyP4, which is known to have low cell-membrane permeability, gave higher IC50 values.
HCT116 human colon carcinoma cells, SW620 human colorectal adenocarcinoma and HEK293 T human embryonic kidney cells were grown in Dulbecco's modified Eagle's medium (DMEM) supplemented with 10% fetal bovine serum, and 1% antibiotic/antimycotic (Invitrogen, Grand Island, NY, USA) and maintained at 37°C in a humidified atmosphere of 5% CO2. […] Following 72 h of compound exposure, cell viability was evaluated using the CellTiter 96 AQueous Non-Radioactive Cell Proliferation Assay (Promega, Madison, WI, USA), using 3-(4,5-dimethylthiazol-2-yl)-5-(3-carboxymethoxyphenyl)-2-(4-sulfophenyl)-2H-tetrazolium, inner salt (MTS) as previously described. Cell viability data were expressed as mean ± SEM or mean ± SD from at least three independent experiments. IC50 and IC65 values were determined using GaphPad Prism v.5.00 (GraphPad Software). […]

[5] = system: HCT116 (colon); assay: MTS short-term cytotoxicity assay, HCT116; format: cell-based, human; conditions: Homo sapiens, HCT-116; MTS assay, 72 h; read-out: IC50 HCT116
Procedure: (§7) Short-term anti-proliferative assays were carried out by two different assays using a panel of human cancer and non-malignant human cell lines. […] The transformed human embryonic kidney cell line HEK293T (wt KRAS) was sensitive to all tested drugs, including TMPyP4, a cationic porphyrin established as a G4 ligand, as well as the anticancer drug 5-fluorouracil (5-FU).
(§8) HCT116 human colon carcinoma cells, SW620 human colorectal adenocarcinoma and HEK293 T human embryonic kidney cells were grown in Dulbecco's modified Eagle's medium (DMEM) supplemented with 10% fetal bovine serum, and 1% antibiotic/antimycotic (Invitrogen, Grand Island, NY, USA) and maintained at 37°C in a humidified atmosphere of 5% CO2. Cells were seeded in 96 well plates at 5.000 cells/well. Twenty-four hours after cell plating, media was removed and replaced with fresh media containing test compounds and 5-FU (Sigma), a common cytotoxic agent used in colon cancer treatmen, or vehicle control (DMSO). Following 72 h of compound exposure, cell viability was evaluated using the CellTiter 96 AQueous Non-Radioactive Cell Proliferation Assay (Promega, Madison, WI, USA), using 3-(4,5-dimethylthiazol-2-yl)-5-(3-carboxymethoxyphenyl)-2-(4-sulfophenyl)-2H-tetrazolium, inner salt (MTS) as previously described. Cell viability data were expressed as mean ± SEM or mean ± SD from at least three independent experiments. IC50 and IC65 values were determined using GaphPad Prism v.5.00 (GraphPad Software). (Performed at Cell Function and Therapeutic Targeting Group, iMed.ULisboa)

[6] = system: HEK293T (embryonic kidney); assay: MTS short-term cytotoxicity assay, HEK293T; format: cell-based; conditions: Homo sapiens, HEK-293T; MTS assay, 72 h; read-out: IC50 HEK293T
Procedure: as §7, §8

[7] = system: SW620 (metastatic colon); assay: MTS short-term cytotoxicity assay, SW620; format: cell-based; conditions: Homo sapiens, SW-620; MTS assay, 72 h; read-out: IC50 SW620
Procedure: as §7, §8

SMILES | FRET stabilization temperature ΔTm (T-loop) [1] [°C] | FRET stabilization temperature ΔTm (KRAS21R) [2] | other results
CCN(CC)CCNc1ccc2c(c1)c1[nH]c3ccccc3c1c[n+]2C [2b] | 7.2 | 12.6 °C | 
CC(C)NCCCNc1ccc2c(c1)c1[nH]c3ccccc3c1c[n+]2C [2c] | 9.1 | 14.5 °C | 
C[n+]1cc2c3ccccc3[nH]c2c2cc(NCCCN3CCCCC3)ccc21 [2e] | 5.2 | 13.4 °C | 
C[n+]1cc2c3ccccc3[nH]c2c2cc(NCCCN3CCOCC3)ccc21 [2f] | 3.4 | 10.1 °C | 
CCN(CC)CCCC(C)Nc1ccc2c(c1)c1[nH]c3ccccc3c1c[n+]2C.[Cl-] (centres unmarked) [2g] | 1.9 | 15.4 °C | 
Brc1ccc2c3cn(Cc4ccccc4)c4ccc(Br)cc4c-3nc2c1 [3c] | 0.3 |  | 
C[n+]1cc2c3cc(NCCCN4CCOCC4)ccc3[nH]c2c2cc(NCCCN3CCOCC3)ccc21 [3f] | 4.9 | 14.1 °C | 
C[n+]1cc2c3ccc(NCCCN4CCOCC4)cc3[nH]c2c2cc(NCCCN3CCOCC3)ccc21 [3g] | 2.9 | 13.2 °C | 
CCN(CC)CCCC(C)Nc1ccc2[nH]c3c(c[n+](C)c4ccc(NC(C)CCCN(CC)CC)cc34)c2c1.[Cl-] (centres unmarked) [3h] | 1.7 | 11.8 °C | 
CCN(CC)CCCC(C)Nc1ccc2c(c1)[nH]c1c2c[n+](C)c2ccc(NC(C)CCCN(CC)CC)cc12.[Cl-] (centres unmarked) [3i] | 2.4 | 13.9 °C | 
CCN(CC)CCCNc1ccc2c(c1)[nH]c1c2c[n+](Cc2ccccc2)c2ccc(NCCCN(CC)CC)cc12.[Cl-] [3j] | 5.2 | 16.8 °C | 
O=c1[nH]cc(F)c(=O)[nH]1 [5-FU, 5-fluorouracil, reference compound] |  |  | Cell death induced, SW620 [3]: > 20%; IC50 [4]: 2.38 to 5.39 µM
Brc1ccc2ncc3c4ccccc4[nH]c3c2c1 [compound 1] | 0.4 | reduced or negligible ability to stabilize the KRAS21R G4 | IC50 [5]: 9.91 µM; FRET stabilization temperature ΔTm (KRAS21R) ([2]; listed as 1a): 0.7 °C; IC50 [6]: 8.03 µM; IC50 [7]: 10.7 µM
